Consider three molecules from patent publication US20210348119A1, “COMPOSITIONS AND METHODS FOR CELL CULTURE” (The United States of America as Represented By The …, priority 2018, published 2021).

Like-named read-outs stand apart in the source and are kept apart here.

The subject of data set [1] is H9 cells. The data set is described as follows: Low seeding density screen for synergy with Chroman 1 and Emricasan. The class given is cell-based, human. Conditions: validation of qHTS hits. On the procedure:
To extend and maximize the use of Chroman 1 and Emricasan for low cell seeding density conditions and single cell cloning, we developed another combinatorial screening strategy. Experimental studies were performed that identified Trans-ISRIB and polyamines as additional cell survival-promoting factors. An assay was developed to screen for compounds that are capable of overcoming cellular stress associated with low cell seeding density. The experiments aimed to define the detection limit and signal strength of the CTG assay in order to detect single cells per well. H9 cells (obtained from WiCell) were used.
Dissociated stem cells were plated onto vitronectin-coated 1536-well plates at the per-well densities indicated on the X-axis. All the plates were prepared in duplicates. One set of plates was read with CTG right after dispensing (r1), and the other set was read 24 hours after (r2). The CTG fold change plotted on Y-axis was calculated as the ratio of r2 to r1 (r2/r1) to reflect cell survival and growth within 24 hours. […] The middle line within the box is the median cell growth. The upper and lower box hinges represent the 75th and 25th percentiles, whereas the upper and lower whiskers extend from the box hinge to the largest or lowest value no further than 1.5× distance between 25th and 75th percentile.
In general terms: qHTS replaces the single test concentration by a dilution series.

In data set [2] the test system is H9 cells. The data set is described as follows: Colony formation at 25 cells/cm2. The class given is cell-based, human. On the procedure: The experiments were performed validating the “hits” obtained from the primary screening. Pluripotent stem cells (H9 cells obtained from WiCell) were dissociated using TrypLE (Thermo-Fisher) and seeded into 6-well plates at a density of 25 cells/cm′.
Whole-well images (6-well plate) were captured with calcein green (0.5 μg/mL; Thermo Fisher Scientific, catalog number: C34852).
Systematic comparison of small molecule combinations and their effect on colony number and colony size of hESCs plated on vitronectin at 25 cells/cm^2 in StemFlex medium was performed. The quantification of the colony formation rate and median colony size was performed 6 days after plating.

In data set [3] the test system is H9 cells. Nature of the data set: Cell survival after routine passage (caspase 3/7 imaging, CTG). It is filed as cell-based, human. Conditions: 100,000 cells per cm^2; 10 μM Y-27632, 50 nM Chroman 1, 5 μM Emricasan.
For data set [4], the system named is H9 cells. Nature of the data set: Long-term passaging of H9 cells (40 passages). The class given is cell-based, human. The settings on record: 24 hours treatment at every passage.
The subject of data set [5] is H9 cells. The data set is described as follows: Dose-response curves of selected ROCK inhibitors, cell survival (CTG). It is filed as cell-based, human. Conditions: four replicates, normalized to CTG reading at 10 μM Y-27632. The source says:
Molar concentrations of the selected ROCK inhibitors are plotted on the X-axis (log scale). […] Thusly normalized data were plotted on the Y-axis.

Data set [6] concerns H9 cells. The data set is described as follows: Survival and attachment of single-cell dissociated cells (CellTiter-Glo, time-lapse imaging). It is filed as cell-based, human. Conditions: 50 nM Chroman 1, 5 μM Emricasan; vitronectin-coated plates, over 24 hours. On the procedure: CellTiter-Glo® assay was used to quantify viable […] cells 24 hours post-plating (100,000 cells/[…]). […] Cellular stress was already apparent 20 minutes after plating in the presence of Emricasan, which ultimately led to dead cells at 24 hours.

In data set [7] the target is T1, ROCK1 (Homo sapiens, UniProt Q13464).
T1 construct: purchased Reaction Biology Corporation (Malvern, Pa.)
T1 sequence (Q13464 whole entry): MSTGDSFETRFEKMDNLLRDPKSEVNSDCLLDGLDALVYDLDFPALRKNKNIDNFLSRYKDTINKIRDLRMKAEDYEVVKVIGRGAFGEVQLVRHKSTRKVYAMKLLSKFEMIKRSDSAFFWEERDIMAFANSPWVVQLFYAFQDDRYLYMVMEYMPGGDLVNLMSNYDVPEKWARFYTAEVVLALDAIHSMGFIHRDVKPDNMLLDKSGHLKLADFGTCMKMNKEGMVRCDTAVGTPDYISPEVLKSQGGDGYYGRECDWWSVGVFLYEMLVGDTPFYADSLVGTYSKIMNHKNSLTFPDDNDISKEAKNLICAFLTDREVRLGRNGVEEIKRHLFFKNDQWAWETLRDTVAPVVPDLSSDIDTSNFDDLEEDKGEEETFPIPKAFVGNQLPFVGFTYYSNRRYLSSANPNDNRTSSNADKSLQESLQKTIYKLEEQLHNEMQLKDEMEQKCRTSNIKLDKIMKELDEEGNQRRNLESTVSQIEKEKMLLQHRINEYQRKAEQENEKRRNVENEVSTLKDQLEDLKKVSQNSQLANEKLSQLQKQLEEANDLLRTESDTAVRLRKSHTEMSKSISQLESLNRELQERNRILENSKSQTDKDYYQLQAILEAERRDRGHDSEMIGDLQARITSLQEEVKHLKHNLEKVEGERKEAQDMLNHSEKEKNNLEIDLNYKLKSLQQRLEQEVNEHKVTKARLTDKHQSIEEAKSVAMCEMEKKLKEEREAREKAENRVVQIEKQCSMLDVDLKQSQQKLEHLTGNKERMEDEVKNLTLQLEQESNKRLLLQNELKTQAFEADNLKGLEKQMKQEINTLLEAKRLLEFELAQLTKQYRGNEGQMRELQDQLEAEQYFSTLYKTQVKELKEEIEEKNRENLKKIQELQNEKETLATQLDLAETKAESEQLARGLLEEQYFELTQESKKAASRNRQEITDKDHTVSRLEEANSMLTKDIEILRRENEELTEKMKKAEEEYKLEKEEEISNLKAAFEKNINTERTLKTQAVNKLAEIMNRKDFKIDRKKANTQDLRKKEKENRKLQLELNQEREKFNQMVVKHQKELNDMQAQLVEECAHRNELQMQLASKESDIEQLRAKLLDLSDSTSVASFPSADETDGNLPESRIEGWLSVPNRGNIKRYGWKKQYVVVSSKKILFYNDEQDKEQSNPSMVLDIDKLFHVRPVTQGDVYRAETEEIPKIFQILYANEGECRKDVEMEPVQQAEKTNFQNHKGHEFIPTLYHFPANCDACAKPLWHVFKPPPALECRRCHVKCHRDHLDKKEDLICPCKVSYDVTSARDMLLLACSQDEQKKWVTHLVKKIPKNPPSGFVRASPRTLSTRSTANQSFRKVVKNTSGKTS
Nature of the data set: HotSpot Kinase Assay (Reaction Biology) ROCK1. The class given is biochemical.

The test system of data set [8] is H9 cells. The data set is described as follows: Embryoid body formation assays. The settings on record: AggreWell plates, 24 hours after seeding.
Description: In one series of experiments, H9 cells were dissociated with Accutase. […] Embryoid body (EB) formation was examined 24 hours after cell seeding.
In a different experimental approach (data not shown), a defined number of H9 cells was plated into AggreWell™ plates (StemCell Technologies, Vancouver, Canada) to generate single EBs per well. Embryoid body (EB) formation was examined 24 hours after cell seeding.
Pluripotent stem cells (WA09, also called H9 cells, obtained from WiCell, Madison, Wis.) dissociated with Accutase were seeded into AggreWell™ plates (StemCell Technologies, Vancouver, Canada) to generate EBs. Bright field images were taken 24 hours after seeding.
H9 cells dissociated with Accutase were seeded into 96-well plates (ultra-low attachment) to generated EBs. After 24 hours, calcein (green staining, live cells) and PI (red staining, dead cells) were added to the cell culture medium to visualize live and dead cells in the wells.
Data set [9] has as its system H9 cells. Nature of the data set: qHTS for survival of dissociated H9 cells (CellTiter-Glo, 24 hours after seeding). The class given is cell-based, human. The settings on record: Homo sapiens, H9, 24 h. The source says:
FIG. 2 schematically illustrates qHTS procedure.
All the screed compounds were received pre-plated at the pre-determined concentrations. […] Curve classification is explained in Huang et al. “Chemical genomics profiling of environmental chemical modulation of human nuclear receptors” Environ. Health. Perspect.

Data set [10] relates to human kinases. Nature of the data set: Kinase profiling, HotSpot Kinase Assay. The class given is biochemical. The settings on record: Y-27632 at 10 μM, Chroman 1 at 50 nM; for specificity / off-target inhibition: under 10% of original activity deemed significant. From the text:
The results of kinase profiling experiments are illustrated in FIG. 8. […] The phylogenic trees of human kinases were generated based on a neighbor-joining tree via ClustalW software derived from multiple protein sequence alignment of human kinase domains (Manning et al., “The protein kinase complement of the human genome” Science 298:1912-1934 (2002)).

Data set [11] has as its system OCT4 expressing cells. The data set is described as follows: Microscopy of stress mechanisms during cell passaging. The settings on record: 3 hours post-plating. The class given is cell-based. The method, then:
The scale bars shown are 10 μm. Upper panel illustrates confocal microscopic analysis of the lamin B1-GFP iPSC reporter line (Allen Insitute for Cell Science, Seattle, Wash.) displaying dramatic morphological differences in nuclear shape during cell passaging (30 min after plating). […] Lower panel illustrates dramatic cytoskeletal differences during cell passaging (3 hours post-plating), as measured by immunocytochemistry against actin and myosin.

The test system of data set [12] is hESCs (H9). The data set is described as follows: Western blot of hESCs after passaging. It is filed as cell-based, human. The settings on record: 3 hours post-passage. From the text: GAPDH was used as a loading control and house-keeping protein control.
Higher observed levels of phosphorylated CHK2 on threonine 68 indicated cell cycle arrest.
Background: A western blot detects proteins with antibodies after separation by electrophoresis.

In data set [13] the test system is H9 cells. The data set is described as follows: Propidium iodide dead cell count of dissociated H9 cells. It is filed as cell-based, human. The settings on record: 10 μM Y-27632 vs 50 nM Chroman 1; 12 hours after plating; EDTA or Accutase dissociation. The method, then:
H9 cells were dissociated with 0.5 mM ethylenediaminetetraacetic acid (EDTA) or Accutase (enzymatic dissociation) according to standard procedures and seeded into vitronectin coated 6-well plates. Phase-contrast and fluorescence microscopy digital images were taken 12 hours after cell plating (data not shown). To generate the fluorescence microscopy images, live cells were stained with Calcein (0.5 μg/ML; Thermo Fisher Scientific, catalog number: C34852), and dead cells were stained with propidium iodide (PI; 500 nM; Thermo Fisher Scientific, catalog number: P3566). For quantitative analysis, the cells were counted using an automated cell counter (Cellometer Auto 2000, Nexcelom). The results of PI staining are illustrated in the bar graph shown in the right panel of FIG. 5.

The mark [14] stands for this setting: H9 cell survival normalized to 10 μM Y-27632 (taken to be 100%), read-out: Max (maximum activity value from all tested concentrations).
[15] abbreviates: H9 cell survival, normalized to 10 μM Y-27632, read-out: Efficacy (activity range between predicted activities at zero and infinite doses, Hill equation).

`O=C(COc1ccc(Cl)cc1)N[C@H]1CC[C@H](NC(=O)COc2ccc(Cl)cc2)CC1` [trans-ISRIB, N,N′-((1r,4r)-cyclohexane-1,4-diyl)bis(2-(4-chlorophenoxy)acetamide)]: the “cell survival at low density combined with 50 nM Chroman 1 and 5 μM Emricasan” value in data set [1] is “cell survival-promoting effect”. Further, the “cell survival when added to the combination of Chroman 1 and Emricasan” value in data set [2] is “further improved cell survival”.

`COc1ccc2c(c1)C[C@H](C(=O)Nc1ccc(-c3cn[nH]c3)cc1OCCN(C)C)CO2` [Chroman 1, (3S)—N-{2-[2-(Dimethylamino)ethoxy]-4-(1H-pyrazol-4-yl)phenyl}-6-methoxy-3,4-dihydro-2H-1-benzopyran-3-carboxamide]: the “cell survival after single-cell dissociation” value in data set [3] is given as “further improved cell survival”. Further, the “karyotype after long-term passaging” value in data set [4] was “maintained a normal karyotype”. Besides, in data set [5], the “potency in dose-response of cell survival” value was “more potent than to Y-27632, Thiazovivin or Fasudil”. Also, the “cell attachment and survival in time-lapse imaging” value in data set [6] is “cell attachment already 20 min after plating”. For the same molecule, the “IC50 against ROCK1 (comparison in words)” value in [7] is listed as “more potent ROCK inhibitor than Y-27632”. In addition, in data set [8], the “single EB formation and dead cells” value is reported as “amount of dead cells was significantly lower”. Moreover, in [9] (setting [14]), the Emax stood at 110%. For the same molecule, the AC50 in data set [9] (H9 cell survival, CellTiter-Glo 24 hours after seeding, read-out: AC50 (concentration at 50% efficacy)) came to 290 nM. The Emax in [9] (setting [15]) is 108%. Further, in data set [10], the primary targets entry is “ROCK1 and ROCK2”; the “specificity / off-target inhibition” value is given as “higher specificity”.

Turning to `C[C@@H](N)[C@H]1CC[C@H](C(=O)Nc2ccncc2)CC1` [Y-27632], in [11], the “cytoskeleton (actin, myosin immunocytochemistry)” value was “form prominent actin stress fibers at the colony edge” and the γH2AX immunoreactivity entry was “immunoreactive for γH2AX”. Besides, in data set [3], the “cell survival after single-cell dissociation” value is “beneficial”. In addition, in data set [12], the “phosphorylated eIF2A at serine 51” value is listed as “High levels of p-eIF2A(S51)” and the “stress response markers (γH2AX, ATF4)” value is on record as “Strong stress response”. The “single EB formation and dead cells” value in data set [8] is “Dead cells surrounded the EBs”. For the same molecule, the Emax in [9] (setting [14]) is 95.5%. Moreover, the Emax in [9] (setting [15]) is 96.2%. In addition, in data set [10], the primary targets entry is “ROCK1 and ROCK2”; the “specificity / off-target inhibition” value is “a number of off-targets, including PKCeta (also known as PKC η or PRKCH), PKCepsilon (also known as PKC ε or PRKCE), PKCdelta (also known as PKC δ or PRKCD), PKN1, PKN2 and PRKX”. Moreover, the “number of propidium iodide-positive dead cells” value in data set [13] is given as “higher number of dead cells than Chroman 1 treatment”.
